# Results: PMC7251097, “Aspartate/asparagine-β-hydroxylase: a high-throughput mass spectrometric assay for discovery of small molecule inhibitors” (Scientific Reports, 2020)
# Where a name gives a salt, the structure may show the parent alone. Read-outs that look alike come from different tables or passages of the source.
# Target: T1, His6-AspH315–758 (human aspartate/asparagine-β-hydroxylase, AspH) (Homo sapiens, UniProt Q12797)
# T1 construct: N-Terminally His6-tagged human AspH315–758 (His6-AspH315–758) was produced in E. coli BL21 (DE3) cells; made in house; host or cells: E. coli BL21 (DE3), pET-28a(+) vector
# T1 sequence (Q12797 315-758): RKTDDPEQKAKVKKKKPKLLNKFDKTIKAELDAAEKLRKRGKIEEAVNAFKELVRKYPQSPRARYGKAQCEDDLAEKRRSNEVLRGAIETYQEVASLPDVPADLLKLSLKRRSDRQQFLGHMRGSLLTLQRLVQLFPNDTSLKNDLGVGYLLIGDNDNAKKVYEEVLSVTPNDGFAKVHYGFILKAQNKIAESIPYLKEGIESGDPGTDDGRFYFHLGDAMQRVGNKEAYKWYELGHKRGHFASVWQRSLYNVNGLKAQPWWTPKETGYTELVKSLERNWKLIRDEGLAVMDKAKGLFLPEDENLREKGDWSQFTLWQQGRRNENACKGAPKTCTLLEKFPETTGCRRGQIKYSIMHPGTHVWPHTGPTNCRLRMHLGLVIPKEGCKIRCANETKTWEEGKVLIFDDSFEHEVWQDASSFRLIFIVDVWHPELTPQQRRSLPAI
# Test: SPE-MS AspH inhibition assay (LOPAC screen at fixed 20 μM and IC50 dose-response), hydroxylation of cyclic peptide hFX-CP101–119
# Assay type: biochemical
# [1] = LOPAC compound at 20uM, plate 2, conversion of substrate peptide
# [2] = LOPAC compound at 20uM, plate 2, normalised to DMSO and 2,4-PDCA controls
# [3] = LOPAC compound at 20uM, plate 3, conversion of substrate peptide
# [4] = LOPAC compound at fixed 20 uM, plate 1, normalised to DMSO and 2,4-PDCA controls
# [5] = LOPAC compound at fixed 20 uM, substrate conversion, plate 1
# [6] = LOPAC Plate 4, compound at 20 uM, substrate conversion
# [7] = LOPAC Plate 4, compound at 20 uM
compound,measurement,setting,value
"CCCCCCCCCCC/C=C\C(C)(C)/C=C\CCCC(=O)O [7,7-Dimethyl-(5Z,8Z)-eicosadienoic acid]",Plate 2 (% conversion),[1],5.42%
same,Plate 2 (% inhibition),[2],91.20%
"O.O=c1cc(-c2ccccc2)oc2c(O)c(O)ccc12 [7,8-Dihydroxyflavone hydrate, reference compound]",% conversion,,2.70%
same,inhibition at 20 µM,,99%
same,inhibition at 20 µM,read-out: Inhibition at 20 µM [%],99%
O=[N+]([O-])c1cccc2cn[nH]c12 [7-Nitroindazole],Plate 3 (% conversion),[3],35.80%
Cn1c(=O)c2c(nc(C=Cc3cccc(Cl)c3)n2C)n(C)c1=O [8-(3-Chlorostyryl)caffeine],Plate 2 (% conversion),,38.57%
same,Plate 2 (% inhibition),20 µM,-7.82%
Cn1c(=O)c2[nH]c(-c3ccc(S(=O)(=O)O)cc3)nc2n(C)c1=O [8-(p-Sulfophenyl)theophylline],Plate 1 (% inhibition),[4],51.62%
same,Plate 1 (% conversion),[5],18.54%
Nc1nc2c(nc(Br)n2[C@@H]2O[C@@H]3COP(=O)([O-])O[C@H]3[C@H]2O)c(=O)[nH]1.[Na+] [8-Bromo-cGMP sodium],Plate 1 (% inhibition),[4],5.25%
same,Plate 1 (% conversion),[5],34.11%
"Cn1c(=O)c2[nH]c(C3CCCC3)nc2n(C)c1=O [8-Cyclopentyl-1,3-dimethylxanthine]",Plate 2 (% conversion),[1],36.70%
same,Plate 2 (% inhibition),[2],-2.21%
"CCCn1c(=O)c2[nH]c(C3CCCC3)nc2n(CCC)c1=O [8-Cyclopentyl-1,3-dipropylxanthine]",Plate 2 (% conversion),,38.65%
same,Plate 2 (% inhibition),20 µM,-8.06%
Nc1ncnc2c1ncn2C1CCCC1 [9-cyclopentyladenine],Plate 1 (% inhibition),[4],2.94%
same,Plate 1 (% conversion),[5],34.88%
CC1=C(/C=C/C(C)=C/C=C/C(C)=C\C(=O)O)C(C)(C)CCC1 [13-cis-retinoic acid],% conversion,[6],23.26%
"N[C@H](C(=O)O)[C@H]1C[C@@H]1C(=O)O [(2S,1S,2S)-2-(carboxycyclopropyl)glycine]",Plate 2 (% conversion),[1],32.34%
same,Plate 2 (% inhibition),[2],10.80%
CC(C)C[C@H]1C(=O)N2CCC[C@H]2[C@]2(O)O[C@](NC(=O)[C@@H]3C=C4c5cccc6[nH]c(Br)c(c56)C[C@H]4N(C)C3)(C(C)C)C(=O)N12.CS(=O)(=O)O [(+)-Bromocriptine methanesulfonate],Plate 1 (% conversion),,29.77%
same,Plate 1 (% inhibition),,18.18%
CN(C)CC[C@@H](c1ccc(Br)cc1)c1ccccn1 [(+)-Brompheniramine maleate],Plate 1 (% inhibition),[4],1.01%
same,Plate 1 (% conversion),[5],35.53%
CN(C)CC[C@@H](c1ccc(Cl)cc1)c1ccccn1 [(+)-Chlorpheniramine maleate],Plate 1 (% inhibition),[4],-13.88%
same,Plate 1 (% conversion),[5],40.53%
N[C@@H](Cn1oc(=O)[nH]c1=O)C(=O)O [(+)-Quisqualic acid],% conversion,,34.23%
CN1C(=O)CC[C@H]1c1cccnc1 [(-)-Cotinine],Plate 1 (% conversion),,36.85%
same,Plate 1 (% inhibition),,-2.91%
CN1CC[C@@]2(C)c3cc(O)ccc3N(C)[C@@H]12.O=C(O)/C=C/C(=O)O [(-)-Eseroline fumarate],Plate 2 (% conversion),,19.71%
same,Plate 2 (% inhibition),20 µM,48.52%
C[C@@]12N[C@@H](Cc3ccccc31)c1ccccc12.O=C(O)/C=C\C(=O)O [(-)-MK-801 hydrogen maleate],Plate 3 (% conversion),,36.17%
C=C(C)[C@H]1CC=C(C(=O)O)CC1 [(-)-Perillic acid],% conversion,[6],29.82%
C[N+]1(C)[C@@H]2C[C@@H](OC(=O)[C@H](CO)c3ccccc3)C[C@H]1[C@@H]1O[C@@H]12 [(-)-Scopolamine methyl bromide],% conversion,,37.79%
CCN1CCC[C@H]1CNC(=O)c1cc(S(N)(=O)=O)ccc1OC [(-)-Sulpiride],% conversion,[6],32.10%
Cl.c1ccc([C@H]2CN3CCSC3=N2)cc1 [(-)-Tetramisole hydrochloride],Plate 3 (% conversion),,32.10%
NC/C=C/C(=O)O [(E)-4-amino-2-butenoic acid],% inhibition,[7],0.14%
same,% conversion,[6],36.42%
C[C@](N)(CCP(=O)(O)O)C(=O)O.Cl [(S)-MAP4 hydrochloride],Plate 3 (% conversion),[3],32.97%
CC(C)NC[C@H](O)COc1cccc2ccccc12 [(S)-Propranolol hydrochloride],% conversion,[6],27.07%
Cl.NCCNS(=O)(=O)c1cccc2c(Cl)cccc12 [A3 hydrochloride],% conversion,,25.50%
Cl.NC[C@@H]1O[C@H](c2ccccc2)Cc2c1ccc(O)c2O [A-68930 hydrochloride],% inhibition,[7],78.36%
same,% conversion,[6],9.73%
Cl.NC[C@@H]1O[C@H](C23CC4CC(CC(C4)C2)C3)Cc2c1ccc(O)c2O [A-77636 hydrochloride],Plate 1 (% conversion),,15.05%
same,Plate 1 (% inhibition),,62.00%
CCS(=O)(=O)Nc1cccc(C(=C2CCCCC2)c2cnc[nH]2)c1 [A-315456],Plate 1 (% conversion),,40.98%
same,Plate 1 (% inhibition),,-15.20%
CC1=C(C)C(=O)C(CCCCC#CCCCC#CCO)=C(C)C1=O [AA-861],Plate 1 (% inhibition),[4],-23.70%
same,Plate 1 (% conversion),[5],43.83%
CNC(=O)[C@H]1O[C@@H](n2cnc3c(NCc4ccc(N)cc4)ncnc32)[C@H](O)[C@@H]1O [AB-MECA],Plate 1 (% inhibition),[4],-6.25%
same,Plate 1 (% conversion),[5],37.97%
Cc1cc([C@@H]2CCCN2C)on1.Cl [ABT-418 hydrochloride],Plate 1 (% conversion),,35.68%
same,Plate 1 (% inhibition),,0.56%
CCCCCCCCc1ccc(-c2ccc(C(=O)O)cc2)cc1 [AC-55649],% conversion,,33.36%
same,% inhibition,20 µM,9.11%
CC[n+]1c(/C=C/C=C2/N(C)c3ccccc3C2(C)C)sc2ccccc21.[I-] [AC-93253 iodide],Plate 2 (% conversion),,41.62%
same,Plate 2 (% inhibition),[2],-16.93%
NS(=O)(=O)c1nn2cc(-c3ccccc3)nc2s1 [AEG 3482],Plate 3 (% conversion),,35.73%
N#C/C(=C\c1ccc(-c2cc(Cl)ccc2Cl)o1)C(=O)Nc1cccc2ncccc12 [AGK2],% conversion,[6],36.60%
NC1(C(=O)O)CCc2cc(C(=O)O)ccc21 (centres unmarked) [AIDA],Plate 1 (% inhibition),[4],3.11%
same,Plate 1 (% conversion),[5],34.83%
CC(C)(C)c1ccc(/C=C/C(=O)Nc2ccc3c(c2)OCCO3)cc1 [AMG 9810],% inhibition,[7],5.34%
same,% conversion,[6],34.65%
O=C(Nc1ccccc1C(=O)NC1CCCCNC1=O)c1cc2ccccc2s1 (centres unmarked) [ANA-12],% conversion,[6],32.70%
CCN(CC)c1ncnc2c1ncn2[C@@H]1O[C@H](COP(=O)([O-])OP(=O)([O-])C(Br)(Br)P(=O)([O-])O)[C@@H](O)[C@H]1O.[Na+].[Na+].[Na+] [ARL 67156 trisodium salt],Plate 1 (% inhibition),[4],82.09%
same,Plate 1 (% conversion),[5],8.30%
"O=C(N/N=C/c1c(O)ccc2ccccc12)c1ccncc1 [AS-8351, reference compound]",IC50,"50 nM His6-AspH315–758, 1.0 μM hFX-CP101–119, 3 μM 2OG, 2 μM Fe(II), 50 mM HEPES pH 7.5, 20 °C, mean ± SD, n = 2 (2,4-PDCA n = 10), read-out: IC50",3.07 ± 0.43 µM
O=C1NC(=O)/C(=C/c2ccc(-c3ccc(F)cc3O)o2)S1 [AS-252424],Plate 1 (% inhibition),[4],-9.30%
same,Plate 1 (% conversion),[5],39.00%
CC(C)(C)c1o[nH]c(=O)c1CC(N)C(=O)O (centres unmarked) [ATPA],Plate 1 (% conversion),,36.48%
same,Plate 1 (% inhibition),,-1.82%
CC(=O)c1ccc2c(c1)N(CCCN(C)C)c1ccccc1S2 [Acepromazine maleate],% conversion,[6],29.56%
CC(N)=O [Acetamide],Plate 1 (% inhibition),[4],0.92%
same,Plate 1 (% conversion),[5],35.56%
CC(=O)Nc1nnc(S(N)(=O)=O)s1 [Acetazolamide],Plate 1 (% inhibition),[4],9.71%
same,Plate 1 (% conversion),[5],32.61%
CC(=O)c1ccc(S(=O)(=O)NC(=O)NC2CCCCC2)cc1 [Acetohexamide],Plate 1 (% inhibition),[4],-6.36%
same,Plate 1 (% conversion),[5],38.01%
CC(=O)OC(C)C[N+](C)(C)C.[Cl-] (stereo not drawn) [Acetyl-beta-methylcholine chloride],Plate 1 (% inhibition),[4],-15.64%
same,Plate 1 (% conversion),[5],41.13%
CC(=O)Oc1ccccc1C(=O)O [Acetylsalicylic acid],Plate 1 (% inhibition),[4],-0.51%
same,Plate 1 (% conversion),[5],36.04%
